In patent US20240217978A1 (CHONG KUN DANG PHARMACEUTICAL CORP., priority 2021, published 2024):

Target: human adenosine A2a receptor (Homo sapiens (Human), UniProt P29274)
Experiment: A2a receptor binding affinity, [3H]-NECA radioligand binding test
Conditions: [3H]-NECA 37 nM; membrane from HEK-293 cells transfected with human adenosine A2a receptor
Procedure, shortened: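 IC50 values (μM) come from displacement of [3H]-NECA, used at 37 nM final, on human A2a receptor membranes from transfected HEK-293 cells. Incubation lasted one hour at room temperature in Tris/MgCl2/EDTA buffer, pH 7.4; filter-bound radioactivity was counted by scintillation.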

human adenosine A2a receptor, sequence (P29274 whole entry): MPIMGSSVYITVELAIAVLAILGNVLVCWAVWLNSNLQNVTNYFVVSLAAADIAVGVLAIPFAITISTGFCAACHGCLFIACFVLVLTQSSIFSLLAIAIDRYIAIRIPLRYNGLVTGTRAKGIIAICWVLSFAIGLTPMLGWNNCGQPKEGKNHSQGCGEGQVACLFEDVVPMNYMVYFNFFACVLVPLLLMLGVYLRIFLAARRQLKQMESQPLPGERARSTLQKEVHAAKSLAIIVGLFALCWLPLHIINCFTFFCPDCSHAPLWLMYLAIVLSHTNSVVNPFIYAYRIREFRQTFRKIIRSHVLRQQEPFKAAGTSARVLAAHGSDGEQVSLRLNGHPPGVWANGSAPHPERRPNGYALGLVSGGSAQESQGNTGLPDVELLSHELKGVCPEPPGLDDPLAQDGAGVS

Row | SMILES | IC50 [nM]
1 | Cc1ccc(-c2nc3nc(N4CCC[C@H]4C(=O)N4CCN(c5ccccc5)CC4)nc(N)n3n2)o1 [Example 199, (S)-(1-(7-amino-2-(5-methylfuran-2-yl)-[1,2,4]triazolo[1,5-a][1,3,5]triazin-5-yl)pyrrolidin-2-yl)(4-phenylpiperazin-1-yl)methanone] | 2
2 | Cc1ccc(-c2nc3nc(N4CCC[C@H]4C(=O)N4CCN(c5ncccn5)CC4)nc(N)n3n2)o1 [Example 203, (S)-(1-(7-amino-2-(5-methylfuran-2-yl)-[1,2,4]triazolo[1,5-a][1,3,5]triazin-5-yl)pyrrolidin-2-yl)(4-(pyrimidin-2-yl)piperazin-1-yl)methanone] | 6
3 | Nc1nc(N2CCC[C@H]2C(=O)N2CC3CCC(C2)N3CC(F)(F)F)nc2nc(-c3ccco3)nn12 [Example 204, ((S)-1-(7-amino-2-(furan-2-yl)-[1,2,4]triazolo[1,5-a][1,3,5]triazin-5-yl)pyrrolidin-2-yl)(8-(2,2,2-trifluoroethyl)-3,8-diazabicyclo[3.2.1]octan-3-yl)methanone] | 13
4 | C[C@@H]1CN(CC(F)(F)F)CCN1C(=O)[C@@H]1CCCN1c1nc(N)n2nc(-c3ccco3)nc2n1 [Example 205, ((S)-1-(7-amino-2-(furan-2-yl)-[1,2,4]triazolo[1,5-a][1,3,5]triazin-5-yl)pyrrolidin-2-yl)((R)-2-methyl-4-(2,2,2-trifluoroethyl)piperazin-1-yl)methanone] | 7
5 | Nc1nc(N2CCC[C@H]2C(=O)N2CCC(C3CCN(CC(F)(F)F)CC3)CC2)nc2nc(-c3ccco3)nn12 [Example 206, (S)-(1-(7-amino-2-(furan-2-yl)-[1,2,4]triazolo[1,5-a][1,3,5]triazin-5-yl)pyrrolidin-2-yl)(1′-(2,2,2-trifluoroethyl)-[4,4′-bipiperidin]-1-yl)methanone] | 1
6 | Cc1ccc(-c2nc3nc(N4CC[C@H]4C(=O)N4CCN(Cc5ccc(F)cc5F)CC4)nc(N)n3n2)o1 [Example 208, (S)-(1-(7-amino-2-(5-methylfuran-2-yl)-[1,2,4]triazolo[1,5-a][1,3,5]triazin-5-yl)azetidin-2-yl)(4-(2,4-difluorobenzyl)piperazin-1-yl)methanone] | 3
7 | Cc1ccc(-c2nc3nc(N4CC[C@H]4C(=O)N4CCN(c5ncccn5)CC4)nc(N)n3n2)o1 [Example 210, (S)-(1-(7-amino-2-(5-methylfuran-2-yl)-[1,2,4]triazolo[1,5-a][1,3,5]triazin-5-yl)azetidin-2-yl)(4-(pyrimidin-2-yl)piperazin-1-yl)methanone] | 1
8 | CC[C@H](Nc1nc(N)n2nc(-c3ccco3)nc2n1)C(=O)N1CCN(CC(F)(F)F)CC1 [Example 211, (S)-2-((7-amino-2-(furan-2-yl)-[1,2,4]triazolo[1,5-a][1,3,5]triazin-5-yl)amino)-1-(4-(2,2,2-trifluoroethyl)piperazin-1-yl)butan-1-one] | 15
9 | CCCC[C@H](Nc1nc(N)n2nc(-c3ccco3)nc2n1)C(=O)N1CCN(CC(F)(F)F)CC1 [Example 213, (S)-2-((7-amino-2-(furan-2-yl)-[1,2,4]triazolo[1,5-a][1,3,5]triazin-5-yl)amino)-1-(4-(2,2,2-trifluoroethyl)piperazin-1-yl)hexan-1-one] | 7
10 | CCC(C)[C@H](Nc1nc(N)n2nc(-c3ccco3)nc2n1)C(=O)N1CCN(CC(F)(F)F)CC1 (stereo partly drawn) [Example 214, (2S)-2-((7-amino-2-(furan-2-yl)-[1,2,4]triazolo[1,5-a][1,3,5]triazin-5-yl)amino)-3-methyl-1-(4-(2,2,2-trifluoroethyl)piperazin-1-yl)pentan-1-one] | 5
11 | Nc1nc(N[C@H](C(=O)N2CCN(CC(F)(F)F)CC2)C2CCCC2)nc2nc(-c3ccco3)nn12 [Example 217, (S)-2-((7-amino-2-(furan-2-yl)-[1,2,4]triazolo[1,5-a][1,3,5]triazin-5-yl)amino)-2-cyclopentyl-1-(4-(2,2,2-trifluoroethyl)piperazin-1-yl)ethan-1-one] | 3
12 | Cc1ccc(-c2nc3nc(N4CC[C@H]4C(=O)N4CCN(Cc5ccccc5)CC4)nc(N)n3n2)o1 [Example 218, (S)-(1-(7-amino-2-(5-methylfuran-2-yl)-[1,2,4]triazolo[1,5-a][1,3,5]triazin-5-yl)azetidin-2-yl)(4-benzylpiperazin-1-yl)methanone] | 10
13 | Cc1ccc(-c2nc3nc(N4CC[C@H]4C(=O)N4CCN(C5CCCCC5)CC4)nc(N)n3n2)o1 [Example 219, (S)-(1-(7-amino-2-(5-methylfuran-2-yl)-[1,2,4]triazolo[1,5-a][1,3,5]triazin-5-yl)azetidin-2-yl)(4-cyclohexylpiperazin-1-yl)methanone] | 3
14 | COCCN1CCN(C(=O)[C@@H]2CCN2c2nc(N)n3nc(-c4ccc(C)o4)nc3n2)CC1 [Example 221, (S)-(1-(7-amino-2-(5-methylfuran-2-yl)-[1,2,4]triazolo[1,5-a][1,3,5]triazin-5-yl)azetidin-2-yl)(4-(2-methoxyethyl)piperazin-1-yl) methanone] | 10
15 | CCCCN1CCN(C(=O)[C@@H]2CCN2c2nc(N)n3nc(-c4ccc(C)o4)nc3n2)CC1 [Example 222, (S)-(1-(7-amino-2-(5-methylfuran-2-yl)-[1,2,4]triazolo[1,5-a][1,3,5]triazin-5-yl)azetidin-2-yl)(4-butylpiperazin-1-yl)methanone] | 8
16 | Nc1nc(N2CCC[C@H]2C(=O)N2CCN(CC(F)F)CC2)nc2nc(-c3ccco3)nn12 [Example 223, (S)-(1-(7-amino-2-(furan-2-yl)-[1,2,4]triazolo[1,5-a][1,3,5]triazin-5-yl)pyrrolidin-2-yl)(4-(2,2-difluoroethyl)piperazin-1-yl)methanone] | 7

Continued by falling IC50, values first:

Row | IC50 [nM] | SMILES
17 | 18 | Nc1nc(N[C@H](C(=O)N2CCN(CC(F)(F)F)CC2)C2CC2)nc2nc(-c3ccco3)nn12 [Example 216, (S)-2-((7-amino-2-(furan-2-yl)-[1,2,4]triazolo[1,5-a][1,3,5]triazin-5-yl)amino)-2-cyclopropyl-1-(4-(2,2,2-trifluoroethyl)piperazin-1-yl)ethan-1-one]
18 | 15 | Cc1ccc(-c2nc3nc(N4CC[C@H]4C(=O)N4CCN(CC(F)(F)F)CC4)nc(N)n3n2)o1 [Example 220, (S)-(1-(7-amino-2-(5-methylfuran-2-yl)-[1,2,4]triazolo[1,5-a][1,3,5]triazin-5-yl)azetidin-2-yl)(4-(2,2,2-trifluoroethyl)piperazin-1-yl)methanone]
19 | 12 | CCC[C@H](Nc1nc(N)n2nc(-c3ccco3)nc2n1)C(=O)N1CCN(CC(F)(F)F)CC1 [Example 212, (S)-2-((7-amino-2-(furan-2-yl)-[1,2,4]triazolo[1,5-a][1,3,5]triazin-5-yl)amino)-1-(4-(2,2,2-trifluoroethyl)piperazin-1-yl)pentan-1-one]
20 | 11 | Cc1ccc(-c2nc3nc(N4CC[C@H]4C(=O)N4CCN(C(=O)c5ccccc5)CC4)nc(N)n3n2)o1 [Example 207, (S)-(1-(7-amino-2-(5-methylfuran-2-yl)-[1,2,4]triazolo[1,5-a][1,3,5]triazin-5-yl)azetidin-2-yl)(4-benzoylpiperazin-1-yl)methanone]
21 | 8 | Cc1ccc(-c2nc3nc(N4CCC[C@H]4C(=O)N4CCN(c5ccccc5)C(=O)C4)nc(N)n3n2)o1 [Example 198, 4-((7-amino-2-(5-methylfuran-2-yl)-[1,2,4]triazolo[1,5-a][1,3,5]triazin-5-yl)-L-prolyl)-1-phenylpiperazin-2-one]
22 | 8 | CC(C)C[C@H](Nc1nc(N)n2nc(-c3ccco3)nc2n1)C(=O)N1CCN(CC(F)(F)F)CC1 [Example 215, (S)-2-((7-amino-2-(furan-2-yl)-[1,2,4]triazolo[1,5-a][1,3,5]triazin-5-yl)amino)-4-methyl-1-(4-(2,2,2-trifluoroethyl)piperazin-1-yl)pentan-1-one]
23 | 7 | Cc1ccc(-c2nc3nc(N4CCC[C@H]4C(=O)N4CCN(c5nccs5)CC4)nc(N)n3n2)o1 [Example 202, 2-(4-((7-amino-2-(5-methylfuran-2-yl)-[1,2,4]triazolo[1,5-a][1,3,5]triazin-5-yl)-L-prolyl)piperazin-1-yl)thiazole]
24 | 6 | CC(F)(F)CN1CCN(C(=O)[C@@H]2CCCN2c2nc(N)n3nc(-c4ccco4)nc3n2)CC1 [Example 224, (S)-(1-(7-amino-2-(furan-2-yl)-[1,2,4]triazolo[1,5-a][1,3,5]triazin-5-yl)pyrrolidin-2-yl)(4-(2,2-difluoropropyl)piperazin-1-yl)methanone]
25 | 5 | Cc1ccc(-c2nc3nc(N4CCC[C@H]4C(=O)N4CCC(c5ccc(F)cc5F)CC4)nc(N)n3n2)o1 [Example 201, (S)-(1-(7-amino-2-(5-methylfuran-2-yl)-[1,2,4]triazolo[1,5-a][1,3,5]triazin-5-yl)pyrrolidin-2-yl)(4-(2,4-difluorophenyl)piperidin-1-yl) methanone]
26 | 3 | Cc1ccc(-c2nc3nc(N4CCC[C@H]4C(=O)N4CCC(C5CCN(CC(F)(F)F)CC5)CC4)nc(N)n3n2)o1 [Example 197, (S)-(1-(7-amino-2-(5-methylfuran-2-yl)-[1,2,4]triazolo[1,5-a][1,3,5]triazin-5-yl)pyrrolidin-2-yl)(1′-(2,2,2-trifluoroethyl)-[4,4′-bipiperidin]-1-yl)methanone]
27 | 1 | Cc1ccc(-c2nc3nc(N4CCC[C@H]4C(=O)N4CCN(c5ccccc5C(F)(F)F)CC4)nc(N)n3n2)o1 [Example 200, (S)-(1-(7-amino-2-(5-methylfuran-2-yl)-[1,2,4]triazolo[1,5-a][1,3,5]triazin-5-yl)pyrrolidin-2-yl)(4-(2-(trifluoromethyl)phenyl)piperazin-1-yl)methanone]
28 | 1 | Cc1ccc(-c2nc3nc(N4CC[C@H]4C(=O)N4CCN(c5ccc(F)cc5F)CC4)nc(N)n3n2)o1 [Example 209, (S)-(1-(7-amino-2-(5-methylfuran-2-yl)-[1,2,4]triazolo[1,5-a][1,3,5]triazin-5-yl)azetidin-2-yl)(4-(2,4-difluorophenyl)piperazin-1-yl)methanone]
